Data published in ChEMBL document CHEMBL3044842, “Composition and antifungal activity on soil-borne pathogens of the essential oil of Salvia sclarea from Greece” (J Agric Food Chem, 2002).

Experiments:
Assay type in all cases: functional, organism-based
Sclerotinia sclerotiorum = experiment: Antifungal activity against Sclerotinia sclerotiorum after 4 days
Stromatinia cepivora = experiment: Antifungal activity against Sclerotium cepivorum after 4 days
[1] = tested on: Fusarium oxysporum f. sp. dianthi; experiment: Antifungal activity against Fusarium oxysporum f. sp. dianthi after 4 days

EC50 (Sclerotinia sclerotiorum) [uL/L]	EC50 (Stromatinia cepivora) [uL/L]	EC50 [1] [uL/L]	Structure (SMILES)
549.62	> 1500	> 1500	C=CC(C)(CCC=C(C)C)OC(C)=O (stereo unspecified) [LINALYL ACETATE]
146.15	563.94	661.76	C=CC(C)(O)CCC=C(C)C (stereo unspecified) [LINALOOL]
